{"source": "patent US11957648B2", "about": "“Method of initiating or escalating dofetilide dose and formulations therefor” (Academic Pharmaceuticals, Inc., priority 2018, dated 2024)", "origin": "cited, not measured here", "key": {"QTc interval": {"tested_on": "QTc interval", "settings": "slope of plasma concentration vs QTc; Sedgwick et al; cited from earlier work"}, "[1]": {"settings": "oral dosing; cited from earlier work"}}}
{"smiles": "CN(CCOc1ccc(NS(C)(=O)=O)cc1)CCc1ccc(NS(C)(=O)=O)cc1", "note": "[Dofetilide, β-((p-methanesulfonamidophenethyl)methylamino)methanesulfono-p-phenetidide]", "values": [{"measurement": "QTc change per dofetilide plasma concentration", "setting": "QTc interval", "value": "15 to 25", "unit": "ms/ng/mL"}, {"measurement": "time to reach steady state concentration", "setting": "[1]", "value": "at least 3 days"}]}
